Test: Inhibition of Bcr-Abl in mouse BA/F3 cells

Row | EC50 | Structure (SMILES)
1 | 470 nM | FC(F)(F)Oc1ccc(Nc2cc(-c3ccncc3)ncn2)cc1 [6-(pyridin-4-yl)-N-(4-(trifluoromethoxy)phenyl)pyrimidin-4-amine]
2 | 490 nM | NC(=O)CCn1ccc2c(Nc3ccc(OC(F)(F)F)cc3)ncnc21 [3-(4-(4-(trifluoromethoxy)phenylamino)-7H-pyrrolo[2,3-d]pyrimidin-7-yl)propanamide]
3 | > 10000 nM | FC(F)(F)Oc1cccc(Nc2cc(NCCN3CCOCC3)ncn2)c1 [N4-(2-morpholinoethyl)-N6-(3-(trifluoromethoxy)phenyl)pyrimidine-4,6-diamine]
4 | 250 nM | OCCn1ncc2c(Nc3ccc(OC(F)(F)F)cc3)ncnc21 [2-(4-(4-(Trifluoromethoxy)phenylamino)-1H-pyrazolo-[3,4-d]pyrimidin-1-yl)ethanol]
5 | 580 nM | NS(=O)(=O)c1cccc(-c2cc(Nc3ccc(OC(F)(F)F)cc3)ncn2)c1 [3-(6-(4-(trifluoromethoxy)phenylamino)pyrimidin-4-yl)benzenesulfonamide]
6 | 1660 nM | FC(F)(F)Oc1ccc(Nc2cc(-n3ccnc3)ncn2)cc1 [6-(1H-imidazol-1-yl)-N-(4-(trifluoromethoxy)phenyl)pyrimidin-4-amine]
7 | 1230 nM | Cc1nc(-c2cc(Nc3ccc(OC(F)(F)F)cc3)ncn2)cs1 [6-(2-methylthiazol-4-yl)-N-(4-(trifluoromethoxy)phenyl)pyrimidin-4-amine]
8 | > 10000 nM | FC(F)(F)Oc1ccc(Nc2ccnc(NCCN3CCOCC3)n2)cc1 [N2-(2-morpholinoethyl)-N4-(4-(trifluoromethoxy)phenyl)pyrimidine-2,4-diamine]
9 | 970 nM | Cc1c(NCCN2CCOCC2)ncnc1Nc1ccc(OC(F)(F)F)cc1 [5-methyl-N4-(2-morpholinoethyl)-N6-(4-(trifluoromethoxy)phenyl)pyrimidine-4,6-diamine]
10 | 918 nM | CCNC(=O)c1cc2c(Nc3ccc(OC(F)(F)F)cc3)ncnc2s1 [N-ethyl-4-(4-(trifluoromethoxy)phenylamino)thieno[2,3-d]pyrimidine-6-carboxamide]
11 | 690 nM | FC(F)(F)Oc1ccc(Nc2ncnc3c2cnn3CC2CCOC2)cc1 (stereo not given) [1-((tetrahydrofuran-3-yl)methyl)-N-(4-(trifluoromethoxy)phenyl)-1H-pyrazolo[3,4-d]pyrimidin-4-amine]
12 | 420 nM | O=C(NCCN1CCOCC1)c1cccc(-c2cc(Nc3ccc(OC(F)(F)F)cc3)ncn2)c1 [N-(2-morpholinoethyl)-3-(6-(4-(trifluoromethoxy)phenylamino)pyrimidin-4-yl)benzamide]
13 | 810 nM | Cc1c(-c2cc(Nc3ccc(OC(F)(F)F)cc3)ncn2)cnn1-c1ccccc1 [6-(5-methyl-1-phenyl-1H-pyrazol-4-yl)-N-(4-(trifluoromethoxy)phenyl)pyrimidin-4-amine]
14 | 400 nM | FC(F)(F)Oc1ccc(Nc2ncnc3c2cnn3C2CCCCC2)cc1 [1-cyclohexyl-N-(4-(trifluoromethoxy)phenyl)-1H-pyrazolo[3,4-d]pyrimidin-4-amine]
15 | > 10000 nM | FC(F)(F)Oc1ccc(Nc2cncc(NCCN3CCOCC3)n2)cc1 [N2-(2-morpholinoethyl)-N6-(4-(trifluoromethoxy)phenyl)pyrazine-2,6-diamine]
16 | 720 nM | FC(F)(F)Oc1ccc(Nc2cc(NCCN3CCOCC3)ncn2)cc1 [N4-(2-morpholinoethyl)-N6-(4-(trifluoromethoxy)phenyl)pyrimidine-4,6-diamine]
17 | > 10000 nM | O=C(NCCO)c1cc2c(Nc3ccc(OC(F)(F)F)cc3)ncnc2s1 [N-(2-Hydroxyethyl)-4-(4-(trifluoromethoxy)phenylamino)thieno[2,3-d]pyrimidine-6-carboxamide]
18 | 4470 nM | FC(F)(F)Oc1ccc(Nc2cc(NCCCN3CCOCC3)ncn2)cc1 [N4-(3-morpholinopropyl)-N6-(4-(trifluoromethoxy)phenyl)pyrimidine-4,6-diamine]

Row | EC50 | Structure (SMILES)
19 | 48 nM | CN1CCN(C(=O)c2cc3c(Nc4ccc(OC(F)(F)F)cc4)ncnc3s2)CC1 [(4-methylpiperazin-1-yl)(4-(4-(trifluoromethoxy)phenylamino)thieno[2,3-d]pyrimidin-6-yl)methanone]
20 | > 10000 nM | COc1ccc(Nc2cc(-c3ccncc3)ncn2)cc1 [N-(4-methoxyphenyl)-6-(pyridin-4-yl)pyrimidin-4-amine]
21 | 1320 nM | OCCn1cc2c(Nc3ccc(OC(F)(F)F)cc3)ncnc2n1 [2-(4-(4-(Trifluoromethoxy)phenylamino)-2H-pyrazolo[3,4-d]pyrimidin-2-yl)ethanol]
22 | > 10000 nM | NC(=O)c1ccccc1-c1cc(Nc2ccc(OC(F)(F)F)cc2)ncn1 [2-(6-(4-(trifluoromethoxy)phenylamino)pyrimidin-4-yl)benzamide]
23 | > 10000 nM | FC(F)(F)Oc1ccc(Oc2cc(NCCN3CCOCC3)ncn2)cc1 [N-(2-morpholinoethyl)-6-(4-(trifluoromethoxy)phenoxy)pyrimidin-4-amine]
24 | 270 nM | CCCn1ncc2c(Nc3ccc(OC(F)(F)F)cc3)ncnc21 [1-propyl-N-(4-(trifluoromethoxy)phenyl)-1H-pyrazolo[3,4-d]pyrimidin-4-amine]
25 | 400 nM | FC(F)(F)Oc1ccc(Nc2ncnc3c2cnn3Cc2ccccc2)cc1 [1-benzyl-N-(4-(trifluoromethoxy)phenyl)-1H-pyrazolo[3,4-d]pyrimidin-4-amine]
26 | 5000 nM | NC(=O)c1cccc(Oc2cc(Nc3ccc(OC(F)(F)F)cc3)ncn2)c1 [3-(6-(4-(trifluoromethoxy)phenylamino)pyrimidin-4-yloxy)benzamide]
27 | > 10000 nM | FC(F)(F)Oc1ccc(Nc2ccc(NCCN3CCOCC3)nn2)cc1 [N3-(2-morpholinoethyl)-N6-(4-(trifluoromethoxy)phenyl)pyridazine-3,6-diamine]
28 | > 10000 nM | FC(F)(F)Oc1ccc(Nc2nccc(NCCN3CCOCC3)n2)cc1 [N4-(2-morpholinoethyl)-N2-(4-(trifluoromethoxy)phenyl)pyrimidine-2,4-diamine]
29 | 170 nM | FC(F)(F)Oc1ccc(Nc2cc(-c3ccnc4[nH]ccc34)ncn2)cc1 [6-(1H-pyrrolo[2,3-b]pyridin-4-yl)-N-(4-(trifluoromethoxy)phenyl)pyrimidin-4-amine]
30 | 380 nM | FC(F)(F)Oc1ccc(Nc2ncnc3c2ccn3CCN2CCOCC2)cc1 [7-(2-morpholinoethyl)-N-(4-(trifluoromethoxy)phenyl)-7H-pyrrolo[2,3-d]pyrimidin-4-amine]
31 | 1700 nM | FC(F)(F)Oc1ccc(Nc2ncnc3nn(Cc4cccnc4)cc23)cc1 [2-(pyridin-3-ylmethyl)-N-(4-(trifluoromethoxy)phenyl)-2H-pyrazolo[3,4-d]pyrimidin-4-amine]
32 | 6890 nM | NC(=O)c1ccc(Cn2ncc3c(Nc4ccc(OC(F)(F)F)cc4)ncnc32)cc1 [4-((4-(4-(trifluoromethoxy)phenylamino)-1H-pyrazolo[3,4-d]pyrimidin-1-yl)methyl)benzamide]
33 | 920 nM | FC(F)(F)c1ccc(Nc2cc(NCCN3CCOCC3)ncn2)cc1 [N4-(2-morpholinoethyl)-N6-(4-(trifluoromethyl)phenyl)pyrimidine-4,6-diamine]
34 | 1240 nM | FC(F)(F)c1ccc(Nc2cc(-c3ccncc3)ncn2)cn1 [6-(pyridin-4-yl)-N-(6-(trifluoromethyl)pyridin-3-yl)pyrimidin-4-amine]
35 | 390 nM | CS(=O)(=O)c1cccc(-c2cc(Nc3ccc(OC(F)(F)F)cc3)ncn2)c1 [6-(3-(methylsulfonyl)phenyl)-N-(4-(trifluoromethoxy)phenyl)pyrimidin-4-amine]

Source: BindingDB's records for doi:10.1021/jm100555f (Harvard Medical School, 2010)
